Experimental data taken from ChEMBL document CHEMBL1122919, “Substituted 2-pyrones, 2-pyridones, and other congeners of elasnin as potential agents for the treatment of chronic obstructive lung diseases” (J Med Chem, 1985).

Key:
Neutrophil elastase [1] = target: T1, Neutrophil elastase (Homo sapiens, UniProt P08246); experiment: Inhibitory activity was evaluated against human leukocyte elastase; Inactive
T1 sequence (P08246 whole entry): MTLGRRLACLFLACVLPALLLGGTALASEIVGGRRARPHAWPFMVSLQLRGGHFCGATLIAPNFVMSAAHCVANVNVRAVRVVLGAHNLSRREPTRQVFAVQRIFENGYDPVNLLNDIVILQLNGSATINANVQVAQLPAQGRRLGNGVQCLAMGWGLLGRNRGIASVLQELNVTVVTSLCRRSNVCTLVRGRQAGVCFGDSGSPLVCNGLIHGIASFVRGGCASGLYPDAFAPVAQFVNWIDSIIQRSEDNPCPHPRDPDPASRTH

Neutrophil elastase [2] = target: T1, Neutrophil elastase; experiment: Inhibitory activity was evaluated against human leukocyte elastase

Row | Compound | IC50 (Neutrophil elastase [1]) | IC50 (Neutrophil elastase [2])
1 | CCCc1cc(O)cc(=O)o1 | Not Active | 
2 | CCCCCCC(CCCC)c1cc(O)cc(=O)o1 (stereo not drawn) |  | 1620 µM
3 | CCCCc1cc(O)cc(=O)o1 | Not Active | 
4 | CCCCCCCc1cc(O)cc(O)n1 | Not Active | 
5 | CCCCCCCc1cc(O)cc(=O)o1 | Not Active | 
6 | CCCCCc1cc(O)cc(=O)o1 | Not Active | 

The next lines start with the values.

Row | IC50 (Neutrophil elastase [1]) | IC50 (Neutrophil elastase [2]) | Compound
7 |  | 35.8 µM | CCCCCCCCCCCCCCCC(=O)c1c(O)cc(C)oc1=O
8 |  | 153 µM | CCCCCCCCCCCc1cc(O)cc(=O)[nH]1
9 | Not Active |  | CCCC(=O)c1c(O)cc(C)oc1=O
10 | Not Active |  | CCC(=O)c1c(O)cc(C)oc1=O
11 |  | 3150 µM | CCCCCCCCCCCc1cc(O)cc(=O)o1
12 | Not Active |  | CCCCCC(=O)c1c(O)cc(C)oc1=O
13 |  | 26.8 µM | CCCCCCCCCCCC(=O)c1c(O)cc(C)oc1=O
